Results as given in patent US20060142572A1, “Inhibitors of ERK protein kinase and uses thereof” (priority 2004, published 2006).

Molecular target: activated ERK2 (Homo sapiens, UniProt P28482)
Experiment: ERK2 inhibition assay (spectrophotometric coupled-enzyme assay)
Format: biochemical
Conditions: activated ERK2 10 nM, 65 μM ATP, 200 μM erktide peptide, 30° C., pH 7.5
Protocol: Compounds were assayed for the inhibition of ERK2 by a spectrophotometric coupled-enzyme assay (Fox et al., Protein Sci. 7:2249, 1998). In this assay, a fixed concentration of activated ERK2 (10 nM) was incubated with various concentrations of a compound of the present invention in DMSO (2.5%) for 10 min. at 30° C. in 0.1 M HEPES buffer (pH 7.5), containing 10 mM MgCl2, 2.5 mM phosphoenolpyruvate, 200 μM NADH, 150 μg/ml pyruvate kinase, 50 μg/ml lactate dehydrogenase, and 200 μM erktide peptide. The reaction was initiated by the addition of 65 μM ATP. The rate of decrease of absorbance at 340 nm was monitored.

Sequence of activated ERK2 (P28482 whole entry): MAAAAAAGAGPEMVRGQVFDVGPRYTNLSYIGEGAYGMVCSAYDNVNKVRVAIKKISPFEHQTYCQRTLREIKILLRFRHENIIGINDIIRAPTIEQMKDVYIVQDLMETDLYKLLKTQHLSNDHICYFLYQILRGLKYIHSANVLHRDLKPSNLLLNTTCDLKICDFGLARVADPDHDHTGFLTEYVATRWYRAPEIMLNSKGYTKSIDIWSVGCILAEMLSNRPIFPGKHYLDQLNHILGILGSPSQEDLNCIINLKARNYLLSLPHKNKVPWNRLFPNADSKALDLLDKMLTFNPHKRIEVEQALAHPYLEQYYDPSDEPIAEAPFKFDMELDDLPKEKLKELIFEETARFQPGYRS

| Compound | Ki [nM] |
| --- | --- |
| CC[C@@H](CO)Nc1ncc(Cl)c(NC2(C(=O)N[C@H](CO)c3cccc(Cl)c3)CC2)n1 [Compound I-6] | > 700 |
| C[C@@H](CO)Nc1nccc(N(C)CC(=O)N[C@H](CO)c2cccc(Cl)c2)n1 [Compound I-8] | > 700 |
| C[C@@H](CO)Nc1ncc(Cl)c(NCCC(=O)N[C@H](CO)c2cccc(Cl)c2)n1 [Compound I-4] | > 700 |
| C[C@@H](CO)Nc1ncc(Cl)c(NC2(C(=O)N[C@H](CO)c3cccc(Cl)c3)CC2)n1 [Compound I-5, 1-(5-chloro-2-(2-hydroxy-1-methylethylamino)-pyrimidin-4-ylamino)-cyclopropanecarboxylic acid [1-(3-chlorophenyl)-2-hydroxyethyl]-amide] | > 700 |

The next lines start with the values.

| Ki [nM] | Compound |
| --- | --- |
| > 700 | C[C@@H](CO)Nc1ncc(Cl)c(N(C)CC(=O)N[C@H](CO)c2cccc(Cl)c2)n1 [Compound I-7, 2-{[5-chloro-2-(2-hydroxy-1-methylethylamino)pyrimidin-4-yl]-methylamino}-N-[1-(3-chlorophenyl)-2-hydroxyethyl]acetamide] |
| ≤ 700 | C[C@@H](CO)Nc1ncc(Cl)c(NCC(=O)N[C@H](CO)c2cccc(Cl)c2)n1 [Compound I-2, 2-[5-chloro-2-(2-hydroxy-1-methylethylamino)-pyrimidin-4-ylamino]-N-[1-(3-chlorophenyl)-2-hydroxyethyl]acetamide] |
| > 700 | CC(C)Nc1ncc(Cl)c(NCC(=O)N[C@H](CO)c2cccc(Cl)c2)n1 [Compound I-1] |
| > 700 | CC(C)Nc1ncc(Cl)c(NCCC(=O)N[C@H](CO)c2cccc(Cl)c2)n1 [Compound I-3] |
